Test results taken from patent US8431698B2, “Bioluminescent endoscopy methods and compounds” (BioLume Inc., priority 2007, dated 2013).

Columns and labels:
Renilla luciferase = target: T1, Renilla luciferase (Renilla reniformis, UniProt P27652); test: Visible glow of coelenterazine with crude extract of bacteria expressing Renilla luciferase in assay buffer; type: biochemical; conditions: about 0.005 mg coelenterazine, about 0.25 ml crude extract, 100 ml assay buffer
T1 construct: made in house
T1 sequence (P27652 1-311): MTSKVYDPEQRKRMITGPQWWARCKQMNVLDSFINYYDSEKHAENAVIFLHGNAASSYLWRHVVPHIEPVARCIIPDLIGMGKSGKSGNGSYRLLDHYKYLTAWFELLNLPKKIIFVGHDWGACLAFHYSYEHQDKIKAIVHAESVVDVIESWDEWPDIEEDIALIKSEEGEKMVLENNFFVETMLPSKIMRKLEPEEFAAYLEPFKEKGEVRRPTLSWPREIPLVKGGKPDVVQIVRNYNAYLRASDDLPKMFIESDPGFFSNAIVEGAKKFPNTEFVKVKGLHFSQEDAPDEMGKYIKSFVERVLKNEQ
Protocol: In certain embodiments herein, about 1 to 10 mg, or preferably 2-5 mg, more preferably about 3 mg of coelenterazine will be used with about 100 mg of Renilla luciferase. The precise amounts, of course can be determined empirically, and, also will depend to some extent on the ultimate concentration and application.

[1] = Rat bioluminescence imaging after coelenterazine and Renilla luciferase via bilateral jugular cannulas; type: in vivo; conditions: coelenterazine 50 mM in Hank's balanced salt solution in one jugular cannula, Renilla luciferase 5 mg/ml in the opposite
Protocol: (§1) A rat was equipped with bilateral jugular cannulas. To one was applied a solution of coelenterazine (50 mM) in Hank's balanced salt solution and to the opposite jugular cannula was administered Renilla luciferase, 5 mg/ml in Hank's balanced slat solution. An image was obtained and was pseudocoloured with Scion Image according to the light level obtained by a Princeton Instruments camera and is shown at FIG. 19.
as §1, with “20.” for “19.”
as §1, with “21.” for “19.”

[2] = tested on: aequorin photoprotein luciferase or luciferase from Renilla; test: Duration of glow of luciferin in water after adding luciferase in presence of Ca++; type: biochemical; conditions: 5 mg luciferin in one liter of water, about 10 mgs luciferase, Ca++ present; depends on water temperature
Protocol: Thus, for example, 5 mg of luciferin, such as coelenterazine, in one liter of water will glow brightly for at least about 10 to 20 minutes, depending on the temperature of the water, when about 10 mgs of luciferase, such as aequorin photoprotein luciferase or luciferase from Renilla, is added thereto in presence of Ca^++. Increasing the concentration of luciferase, for example, to 100 mg/L, provides a particularly brilliant light display.

Oc1ccc(Cc2nc3c(Cc4ccccc4)nc(-c4ccc(O)cc4)cn3c2O)cc1 [coelenterazine]
glow produced (Renilla luciferase): sufficient to produce a visible and lasting glow
bioluminescence image, liver (FIG. 20) [1]: patchy contrast regions in the liver
bioluminescence image, whole animal (FIG. 21) [1]: perfusion of bioluminescence in the whole animal
time of bright glow [2]: 10 to 20 min
